Measured values reported in PubChem BioAssay (NCI).
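A five-concentration, 48-hour dose response in 96-well plates underlies each endpoint, interpolated linearly between surrounding concentrations. The concentration for 50% growth inhibition is given as GI50. TGI: total growth inhibition.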

How the values were obtained:
Assay in all cases: NCI anticancer screen, dose series, 48 h
786-0 renal = test system: 786-0 renal
A498 renal = test system: A498 renal
A549 NSCLC = test system: A549 NSCLC
ACHN renal = test system: ACHN renal
BT-549 breast = test system: BT-549 breast
CAKI-1 renal = test system: CAKI-1 renal
CCRF-CEM leukemia = test system: CCRF-CEM leukemia
COLO 205 colon = test system: COLO 205 colon
DU-145 prostate = test system: DU-145 prostate
EKVX NSCLC = test system: EKVX NSCLC
HCC-2998 colon = test system: HCC-2998 colon
HCT-116 colon = test system: HCT-116 colon
HCT-15 colon = test system: HCT-15 colon
HL-60(TB) leukemia = test system: HL-60(TB) leukemia
HOP-62 NSCLC = test system: HOP-62 NSCLC
HOP-92 NSCLC = test system: HOP-92 NSCLC
HS 578T breast = test system: HS 578T breast
HT29 colon = test system: HT29 colon
IGROV1 ovarian = test system: IGROV1 ovarian
K-562 leukemia = test system: K-562 leukemia
KM12 colon = test system: KM12 colon
LOX IMVI melanoma = test system: LOX IMVI melanoma
M14 melanoma = test system: M14 melanoma
MALME-3M melanoma = test system: MALME-3M melanoma
MCF7 breast = test system: MCF7 breast
MDA-MB-231 breast = test system: MDA-MB-231 breast
MDA-MB-435 = test system: MDA-MB-435
MOLT-4 leukemia = test system: MOLT-4 leukemia
NCI-H226 lung = test system: NCI-H226 lung
NCI-H23 lung = test system: NCI-H23 lung

## NCCCCCn1c2c(c3ccccc3c1=O)C(=O)c1ccccc1-2
786-0 renal
  GI50: 274 nM
  TGI: 2010 nM
A498 renal
  GI50: 1430 nM
  TGI: 4.07 µM
A549 NSCLC
  GI50: 452 nM
ACHN renal
  GI50: 190 nM
  TGI: 909 nM
BT-549 breast
  GI50: 1570 nM
  TGI: 4.6 µM
CAKI-1 renal
  GI50: 749 nM
  TGI: 14 µM
CCRF-CEM leukemia
  GI50: 106 nM
  TGI: 1160 nM
COLO 205 colon
  GI50: 639 nM
  TGI: 3.27 µM
DU-145 prostate
  GI50: 266 nM
EKVX NSCLC
  GI50: 4.08 µM
  TGI: 17.1 µM
HCC-2998 colon
  GI50: 529 nM
  TGI: 2630 nM
HCT-116 colon
  GI50: 151 nM
  TGI: 3.91 µM
HCT-15 colon
  GI50: 163 nM
  TGI: 2340 nM
HL-60(TB) leukemia
  GI50: 159 nM
  TGI: 744 nM
HOP-62 NSCLC
  GI50: 221 nM
  TGI: 2190 nM
HOP-92 NSCLC
  GI50: 435 nM
  TGI: 3.72 µM
HS 578T breast
  GI50: 1770 nM
  TGI: 12.9 µM
HT29 colon
  GI50: 246 nM
  TGI: 4.66 µM
IGROV1 ovarian
  GI50: 241 nM
  TGI: 2750 nM
K-562 leukemia
  GI50: 195 nM
  TGI: 2470 nM
KM12 colon
  GI50: 284 nM
  TGI: 2480 nM
LOX IMVI melanoma
  GI50: 221 nM
  TGI: 1760 nM
M14 melanoma
  GI50: 1410 nM
  TGI: 3.22 µM
MALME-3M melanoma
  GI50: 1130 nM
  TGI: 3.17 µM
MCF7 breast
  GI50: 69.6 nM
  TGI: 3.49 µM
MDA-MB-231 breast
  GI50: 1760 nM
  TGI: 6.09 µM
MDA-MB-435
  GI50: 1360 nM
  TGI: 3.62 µM
MOLT-4 leukemia
  GI50: 28.5 nM
  TGI: 1740 nM
NCI-H226 lung
  GI50: 479 nM
  TGI: 2160 nM
NCI-H23 lung
  GI50: 314 nM
